Data from PMC9676650, “Binding pocket stabilization by high-throughput screening of yeast display libraries” (Frontiers in Molecular Biosciences, 2022).
Positions count from the first letter of the chain named.

Assays:
[1] = target: T1, FKBP51 variant G64D (Homo sapiens, UniProt Q13451, G64D); assay: Fluorescence polarization tracer binding, FKBP51 G64D; conditions: for Fold change in Kd improvement: FKBP51 G64D compared to WT; for Kd: FKBP51 G64D, 0.5 nM SAFit-FL, 5 nM Mcyc-TA or 1 nM FK [431]-TA, 30 min room temperature
T1 construct: made in house; host or cells: E. coli BL21 (DE3)
T1 sequence (Q13451 1-140 G64D): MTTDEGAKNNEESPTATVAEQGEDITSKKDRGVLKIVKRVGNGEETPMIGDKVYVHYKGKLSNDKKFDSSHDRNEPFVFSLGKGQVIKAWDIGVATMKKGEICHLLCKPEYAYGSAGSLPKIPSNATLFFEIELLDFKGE
Source text: (§1) All ligands and tracers used for fluorescence polarization assays had purities of more than 95%. The following ligands and tracers were used for fluorescence polarization and FACS screening experiments: •SAFit-FL tracer (1): Fluorescein conjugated analog of the iFit ligand class. •Mcyc-TA tracer (2): TAMRA conjugated macrocyclic ligand (5). •FK [431]-TA tracer (3): TAMRA conjugated FK [431] ligand (6). •SAFit1 ligand (4): analog of the iFit ligand class. •macrocyclic ligand (5):macrocyclic analog of the SAFit class ligands. •FK [431] ligand (6):bicyclic analog of the immunosuppressive drug FK506
(§2) The binding of the generated FKBP51 variants to different conformation-sensitive FKBP ligands was investigated by fluorescence polarization assays. Therefore, a serial dilution of the respective FKBP51 variant in assay buffer (20 mM HEPES pH 8.0, 150 mM NaCl, 0.015% Triton X-100) was placed in a 384-well assay plate and a defined amount of the respective fluorescent tracer (0.5 nM of the SAFit based tracer SAFit-FL (1), 5 nM of the macrocyclic tracer Mcyc-TA 2) or 1 nM of the FK [431]-TA 3) in assay buffer was added to the protein buffer mixture. After incubation for 30 min at room temperature, the fluorescence polarization was measured with a plate reader. The obtained results for each 3 independent experiments were normalized with respect to the maximal binding signal and fitted to a one-site binding model as described by [Wang et al., 1992] yielding the respective binding constants. tracer bound=100/Lt×0.5×(Rt+Lt+KD−(Rt+Lt+KD)^2−4×LtRt) With L t , total concentration of the tracer, R t , total concentration of the receptor and K D binding constant of the complex RL.

[2] = target: T2, FKBP51 variant G64E (Homo sapiens, UniProt Q13451, G64E); assay: Fluorescence polarization tracer binding, FKBP51 G64E; conditions: for Fold change in Kd improvement: FKBP51 G64E compared to WT; for Kd: FKBP51 G64E, 0.5 nM SAFit-FL, 5 nM Mcyc-TA or 1 nM FK [431]-TA, 30 min room temperature
T2 construct: made in house; host or cells: E. coli BL21 (DE3)
T2 sequence (Q13451 1-140 G64E): T1 sequence (Q13451 1-140 G64D) with D64E
Source text: as §1, §2

[3] = target: T3, FKBP51 variant G64R (Homo sapiens, UniProt Q13451, G64R); assay: Fluorescence polarization tracer binding, FKBP51 G64R; conditions: for Fold change in Kd improvement: FKBP51 G64R compared to WT; for Kd: FKBP51 G64R, 0.5 nM SAFit-FL, 5 nM Mcyc-TA or 1 nM FK [431]-TA, 30 min room temperature
T3 construct: made in house; host or cells: E. coli BL21 (DE3)
T3 sequence (Q13451 1-140 G64R): T1 sequence (Q13451 1-140 G64D) with D64R
Source text: as §1, §2

[4] = target: T4, FKBP51 variant G64K (Homo sapiens, UniProt Q13451, G64K); assay: Fluorescence polarization tracer binding, FKBP51 G64K; conditions: for Fold change in Kd improvement: FKBP51 G64K compared to WT; for Kd: FKBP51 G64K, 0.5 nM SAFit-FL, 5 nM Mcyc-TA or 1 nM FK [431]-TA, 30 min room temperature
T4 construct: made in house; host or cells: E. coli BL21 (DE3)
T4 sequence (Q13451 1-140 G64K): T1 sequence (Q13451 1-140 G64D) with D64K
Source text: as §1, §2

[5] = target: T5, FKBP51 variant F67E (Homo sapiens, UniProt Q13451, F67E); assay: Fluorescence polarization tracer binding, FKBP51 F67E; conditions: for Kd: FKBP51 F67E, 0.5 nM SAFit-FL, 5 nM Mcyc-TA or 1 nM FK [431]-TA, 30 min room temperature
T5 construct: made in house; host or cells: E. coli BL21 (DE3)
T5 sequence (Q13451 1-140 F67E): T1 sequence (Q13451 1-140 G64D) with D64G, F67E
Source text: as §1, §2

[6] = target: T6, FKBP51 variant F67R (Homo sapiens, UniProt Q13451, F67R); assay: Fluorescence polarization tracer binding, FKBP51 F67R; conditions: for Fold change in Kd improvement: FKBP51 F67R compared to WT; for Kd: FKBP51 F67R, 0.5 nM SAFit-FL, 5 nM Mcyc-TA or 1 nM FK [431]-TA, 30 min room temperature
T6 construct: made in house; host or cells: E. coli BL21 (DE3)
T6 sequence (Q13451 1-140 F67R): T1 sequence (Q13451 1-140 G64D) with D64G, F67R
Source text: as §1, §2

[7] = target: T7, FKBP51 variant F67S (Homo sapiens, UniProt Q13451, F67S); assay: Fluorescence polarization tracer binding, FKBP51 F67S; conditions: for Fold change in Kd improvement: FKBP51 F67S compared to WT; for Kd: FKBP51 F67S, 0.5 nM SAFit-FL, 5 nM Mcyc-TA or 1 nM FK [431]-TA, 30 min room temperature
T7 construct: made in house; host or cells: E. coli BL21 (DE3)
T7 sequence (Q13451 1-140 F67S): T1 sequence (Q13451 1-140 G64D) with D64G, F67S
Source text: as §1, §2

[8] = target: T8, FKBP51 variant F67W (Homo sapiens, UniProt Q13451, F67W); assay: Fluorescence polarization tracer binding, FKBP51 F67W; conditions: for Fold change in Kd improvement: FKBP51 F67W compared to WT
T8 construct: made in house; host or cells: E. coli BL21 (DE3)
T8 sequence (Q13451 1-140 F67W): T1 sequence (Q13451 1-140 G64D) with D64G, F67W
Source text: as §1, §2

[9] = target: T9, FKBP51 variant S69Y (Homo sapiens, UniProt Q13451, S69Y); assay: Fluorescence polarization tracer binding, FKBP51 S69Y; conditions: for Fold change in Kd improvement: FKBP51 S69Y compared to WT; for Kd: FKBP51 S69Y, 0.5 nM SAFit-FL, 5 nM Mcyc-TA or 1 nM FK [431]-TA, 30 min room temperature
T9 construct: made in house; host or cells: E. coli BL21 (DE3)
T9 sequence (Q13451 1-140 S69Y): T1 sequence (Q13451 1-140 G64D) with D64G, S69Y
Source text: as §1, §2

Kd ([8]; FKBP51 F67W, 0.5 nM SAFit-FL, 5 nM Mcyc-TA or 1 nM FK [431]-TA, 30 min room temperature) | Structure (SMILES) | Fold change in Kd improvement [1] | Kd [1] | Fold change in Kd improvement [2] | Kd [2] | Fold change in Kd improvement [3] | Kd [3] | Fold change in Kd improvement [4] | Kd [4] | Fold change in Kd improvement ([5]; FKBP51 F67E compared to WT) | Kd [5] | Fold change in Kd improvement [6] | Kd [6] | Fold change in Kd improvement [7] | Kd [7] | Fold change in Kd improvement [8] | Fold change in Kd improvement [9] | Kd [9]
 | CN(C)c1ccc2c(-c3cc(C(=O)NCCn4cc([C@H]5CN(Cc6ccccn6)C(=O)[C@@H]6CCC[C@H]5N6S(=O)(=O)c5cc(Cl)cc(Cl)c5)nn4)ccc3C(=O)O)c3ccc(=[N+](C)C)cc-3oc2c1 [FK [431]-TA] | 0.300 fold | 17 ± 1 nM | 0.268 fold | 19 ± 1 nM | 0.159 fold | 32 ± 2 nM | 0.283 fold | 18 ± 1 nM | 0.004 fold | 1330 ± 66 nM | 0.016 fold | 312 ± 14 nM | 0.004 fold | 1240 ± 60 nM | 0.004 fold | 0.077 fold | 66 ± 2 nM
16 ± 1 nM | COc1ccc(CC[C@H]2OC(=O)[C@@H]3CCCCN3C(=O)[C@@H](C3CCCCC3)NC(=O)C(C)(C)NC(=O)COc3cc(OCCNC(=O)c4ccc(C(=O)O)c(-c5c6ccc(=[N+](C)C)cc-6oc6cc(N(C)C)ccc56)c4)cc2c3)cc1OC [Mcyc-TA] | 2.76 fold | 8.7 ± 1 nM | 7.27 fold | 3.3 ± 0.3 nM | 2.42 fold | 9.9 ± 1 nM | 6.86 fold | 3.5 ± 0.5 nM |  | 5 ± 0.5 nM | 1.00 fold | 24 ± 3 nM | 1.14 fold | 21 ± 2 nM | 1.50 fold | 1.41 fold | 17 ± 1 nM
